In ChEMBL document CHEMBL4334471, “Discovery of 1,8-disubstituted-[1,2,3]triazolo[4,5-c]quinoline derivatives as a new class of Hippo signaling pathway inhibitors” (Bioorg Med Chem Lett, 2019):

Key:
[1] = molecular target: Calcium/calmodulin-dependent protein kinase type II subunit gamma (Homo sapiens) (UniProt Q13555); test: Inhibition of recombinant human CaMK2gamma (1 to 330 residues) assessed as residual activity at 10 uM using […] incubated for 40 mins in presence of [gamma-33ATP] by scintillation counting based radiometry assay relative to control
Calcium/calmodulin-dependent protein kinase type II subunit gamma (Homo sapiens), sequence (Q13555 whole entry, the tested form may be a part, canonical isoform): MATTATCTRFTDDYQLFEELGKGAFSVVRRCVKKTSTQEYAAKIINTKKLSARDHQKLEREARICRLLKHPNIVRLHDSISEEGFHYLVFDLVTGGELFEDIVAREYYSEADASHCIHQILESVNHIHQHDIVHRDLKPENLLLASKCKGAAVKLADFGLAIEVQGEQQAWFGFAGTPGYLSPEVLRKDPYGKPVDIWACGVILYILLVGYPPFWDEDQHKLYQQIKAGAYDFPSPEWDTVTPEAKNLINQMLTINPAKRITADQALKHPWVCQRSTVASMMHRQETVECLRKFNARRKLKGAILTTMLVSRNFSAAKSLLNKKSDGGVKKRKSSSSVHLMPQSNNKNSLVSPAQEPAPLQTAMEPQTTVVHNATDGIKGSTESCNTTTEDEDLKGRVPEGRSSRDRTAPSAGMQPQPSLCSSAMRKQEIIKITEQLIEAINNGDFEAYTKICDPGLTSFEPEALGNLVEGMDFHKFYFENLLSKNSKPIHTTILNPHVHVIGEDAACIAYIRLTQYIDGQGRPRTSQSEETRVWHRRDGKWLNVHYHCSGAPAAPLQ

[2] = molecular target: Casein kinase I isoform gamma-2 (Homo sapiens) (UniProt P78368); test: Inhibition of recombinant human CK1gamma2 (18 to end residues) assessed as residual activity at 10 uM using KRRRALS(p)VASLPGL as substrate incubated for 40 mins in presence of [gamma-33ATP] by scintillation counting based radiometry assay relative to control
Casein kinase I isoform gamma-2 (Homo sapiens), sequence (P78368 whole entry, looked up, the tested form may be a part, canonical isoform): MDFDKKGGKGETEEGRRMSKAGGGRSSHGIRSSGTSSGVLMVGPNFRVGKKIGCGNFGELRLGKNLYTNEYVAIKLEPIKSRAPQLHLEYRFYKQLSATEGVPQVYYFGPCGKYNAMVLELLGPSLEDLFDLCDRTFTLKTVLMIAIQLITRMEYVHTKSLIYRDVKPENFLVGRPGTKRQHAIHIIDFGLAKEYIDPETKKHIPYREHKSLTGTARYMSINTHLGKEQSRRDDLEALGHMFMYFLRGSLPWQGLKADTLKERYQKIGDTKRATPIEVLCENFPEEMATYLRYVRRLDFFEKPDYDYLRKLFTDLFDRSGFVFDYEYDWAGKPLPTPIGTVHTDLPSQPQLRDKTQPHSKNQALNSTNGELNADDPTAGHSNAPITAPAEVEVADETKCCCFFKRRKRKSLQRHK

[3] = molecular target: TRAF2 and NCK-interacting protein kinase (Homo sapiens) (UniProt Q9UKE5); test: Inhibition of human TNIK (1 to 367 residues) assessed as residual activity at 10 uM using RLGRDKYKTLRQIRQ as substrate incubated for 40 mins in presence of [gamma33P]ATP by scintillation counting based radiometry assay relative to control
TRAF2 and NCK-interacting protein kinase (Homo sapiens), sequence (Q9UKE5 whole entry, looked up, the tested form may be a part): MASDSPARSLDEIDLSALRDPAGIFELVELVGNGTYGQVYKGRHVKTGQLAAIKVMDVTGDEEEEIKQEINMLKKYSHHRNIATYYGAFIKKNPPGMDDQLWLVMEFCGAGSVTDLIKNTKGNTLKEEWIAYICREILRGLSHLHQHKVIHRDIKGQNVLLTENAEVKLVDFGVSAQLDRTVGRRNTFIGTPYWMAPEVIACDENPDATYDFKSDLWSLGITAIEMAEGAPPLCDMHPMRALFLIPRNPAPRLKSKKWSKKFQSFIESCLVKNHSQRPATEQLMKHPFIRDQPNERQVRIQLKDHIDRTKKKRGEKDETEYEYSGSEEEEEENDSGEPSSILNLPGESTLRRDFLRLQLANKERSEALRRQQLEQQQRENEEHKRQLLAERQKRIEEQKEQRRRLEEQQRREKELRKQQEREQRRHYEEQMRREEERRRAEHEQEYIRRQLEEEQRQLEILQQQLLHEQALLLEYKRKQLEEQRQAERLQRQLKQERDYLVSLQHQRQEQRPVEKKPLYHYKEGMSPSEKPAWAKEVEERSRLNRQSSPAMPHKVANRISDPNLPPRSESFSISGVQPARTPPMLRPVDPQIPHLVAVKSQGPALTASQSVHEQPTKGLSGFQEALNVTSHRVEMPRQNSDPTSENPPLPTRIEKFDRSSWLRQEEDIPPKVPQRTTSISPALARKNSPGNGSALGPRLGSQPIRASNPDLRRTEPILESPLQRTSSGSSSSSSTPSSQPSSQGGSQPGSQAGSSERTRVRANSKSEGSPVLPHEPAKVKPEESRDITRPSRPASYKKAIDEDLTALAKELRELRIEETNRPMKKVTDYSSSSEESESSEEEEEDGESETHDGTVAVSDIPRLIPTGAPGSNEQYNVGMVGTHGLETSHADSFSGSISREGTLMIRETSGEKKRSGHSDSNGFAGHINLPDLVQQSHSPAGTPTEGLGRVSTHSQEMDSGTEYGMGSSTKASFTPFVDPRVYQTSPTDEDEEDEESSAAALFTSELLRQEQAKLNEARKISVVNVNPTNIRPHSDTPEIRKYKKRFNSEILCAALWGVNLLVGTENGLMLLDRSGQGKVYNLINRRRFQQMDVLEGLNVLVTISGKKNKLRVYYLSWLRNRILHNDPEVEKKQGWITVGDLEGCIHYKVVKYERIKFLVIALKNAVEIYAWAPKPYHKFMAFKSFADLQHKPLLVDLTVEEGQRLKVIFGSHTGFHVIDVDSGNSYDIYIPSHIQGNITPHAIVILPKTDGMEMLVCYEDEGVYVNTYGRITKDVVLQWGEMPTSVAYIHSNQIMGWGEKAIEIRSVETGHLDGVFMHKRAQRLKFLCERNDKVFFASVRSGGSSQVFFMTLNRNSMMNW

[4] = system: Serine/threonine-protein kinase Chk2 (Homo sapiens), O96017 [I157T]; test: Inhibition of recombinant human CHK2 I157T mutant (5 to end residues) assessed as residual activity at 10 uM using KKKVSRSGLYRSPSMPENLNRPR as substrate incubated for 40 mins in presence of [gamma-33ATP] by scintillation counting based radiometry assay relative to control
Serine/threonine-protein kinase Chk2 (Homo sapiens), O96017 [I157T], sequence (O96017 whole entry I157T): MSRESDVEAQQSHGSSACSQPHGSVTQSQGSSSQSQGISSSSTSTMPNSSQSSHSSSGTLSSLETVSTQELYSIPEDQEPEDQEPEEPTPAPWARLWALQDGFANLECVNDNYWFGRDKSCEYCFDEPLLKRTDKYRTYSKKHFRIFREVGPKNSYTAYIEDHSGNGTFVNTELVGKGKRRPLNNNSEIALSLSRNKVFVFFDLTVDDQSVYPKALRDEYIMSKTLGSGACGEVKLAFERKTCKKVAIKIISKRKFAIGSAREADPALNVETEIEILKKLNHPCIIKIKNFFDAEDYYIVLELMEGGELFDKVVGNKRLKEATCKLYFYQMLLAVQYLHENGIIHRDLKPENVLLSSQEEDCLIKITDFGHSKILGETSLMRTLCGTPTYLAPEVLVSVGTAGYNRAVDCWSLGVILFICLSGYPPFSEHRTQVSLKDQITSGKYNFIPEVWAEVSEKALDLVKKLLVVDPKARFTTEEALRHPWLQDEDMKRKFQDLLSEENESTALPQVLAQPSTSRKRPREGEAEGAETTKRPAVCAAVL

[5] = molecular target: Mitogen-activated protein kinase 10 (Homo sapiens) (UniProt P53779); test: Inhibition of human JNK3 assessed as residual activity at 10 uM using peptide as substrate after 40 mins by [gamma-33ATP] radiometric assay relative to control
[6] = molecular target: Interferon-induced, double-stranded RNA-activated protein kinase (Homo sapiens) (UniProt P19525); test: Inhibition of recombinant human PKR (252 to end residues) assessed as residual activity at 10 uM using RSRSRSRSRSRSRSR as substrate incubated for 40 mins in presence of [gamma33P]ATP by scintillation counting based radiometry assay relative to control
[7] = molecular target: Serine/threonine-protein kinase 24 (Homo sapiens) (UniProt Q9Y6E0); test: Inhibition of recombinant human MST3 (1 to 304 residues) assessed as residual activity at 10 uM using ERMRPRKRQGSVR as substrate measured after 40 mins in presence of [gamma33P]ATP by scintillation counting based radiometry assay relative to control
[8] = molecular target: Proto-oncogene tyrosine-protein kinase Src (Homo sapiens) (UniProt P12931); test: Inhibition of recombinant human C-Src assessed as residual activity at 10 uM Cdc2 peptide as substrate incubated 40 mins in presence of [gamma-33ATP] by scintillation counting based radiometry assay relative to control
[9] = species: Homo sapiens; test: Inhibition of recombinant human DDR1 V833L mutant (492 to end residues) assessed as residual activity at 10 uM using KKKSPGEYVNIEF as substrate at 40 mins in presence of [gamma-33ATP] by scintillation counting based radiometry assay relative to control
[10] = molecular target: Tyrosine-protein kinase ABL2 (Homo sapiens) (UniProt P42684); test: Inhibition of human Arg (38 to end residues) assessed as residual activity at 10 uM using EAIYAAPFAKKK as substrate incubated for 40 mins in presence of [gamma-33ATP] by scintillation counting based radiometry assay relative to control
[11] = molecular target: Tyrosine-protein kinase Lyn (Mus musculus) (UniProt P25911); test: Inhibition of recombinant full length mouse Lyn assessed as residual activity at 10 uM using poly(Glu, Tyr) 4:1 as substrate after 40 mins in presence of [gamma-33ATP] by scintillation counting based radiometry assay relative to control
Tyrosine-protein kinase Lyn (Mus musculus), sequence (P25911 whole entry): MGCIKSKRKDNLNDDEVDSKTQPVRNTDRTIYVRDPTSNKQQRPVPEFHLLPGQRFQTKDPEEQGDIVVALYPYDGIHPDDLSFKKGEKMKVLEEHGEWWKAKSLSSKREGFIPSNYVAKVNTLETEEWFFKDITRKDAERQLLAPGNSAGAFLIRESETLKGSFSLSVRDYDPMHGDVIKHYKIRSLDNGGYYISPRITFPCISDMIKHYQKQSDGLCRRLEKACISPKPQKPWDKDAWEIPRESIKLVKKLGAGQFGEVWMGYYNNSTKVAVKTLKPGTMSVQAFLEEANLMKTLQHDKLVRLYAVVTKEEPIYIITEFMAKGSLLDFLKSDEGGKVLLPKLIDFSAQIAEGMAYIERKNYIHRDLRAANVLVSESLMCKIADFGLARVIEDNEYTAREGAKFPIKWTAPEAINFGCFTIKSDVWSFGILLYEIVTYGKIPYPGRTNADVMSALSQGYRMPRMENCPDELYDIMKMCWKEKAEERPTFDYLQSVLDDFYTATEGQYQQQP

[12] = molecular target: Serine/threonine-protein kinase PLK1 (Homo sapiens) (UniProt P53350); test: Inhibition of recombinant full-length human Plk1 assessed as residual activity at 10 uM using casein as substrate incubated for 40 mins in presence of [gamma33P]ATP by scintillation counting based radiometry assay relative to control
Serine/threonine-protein kinase PLK1 (Homo sapiens), sequence (P53350 whole entry): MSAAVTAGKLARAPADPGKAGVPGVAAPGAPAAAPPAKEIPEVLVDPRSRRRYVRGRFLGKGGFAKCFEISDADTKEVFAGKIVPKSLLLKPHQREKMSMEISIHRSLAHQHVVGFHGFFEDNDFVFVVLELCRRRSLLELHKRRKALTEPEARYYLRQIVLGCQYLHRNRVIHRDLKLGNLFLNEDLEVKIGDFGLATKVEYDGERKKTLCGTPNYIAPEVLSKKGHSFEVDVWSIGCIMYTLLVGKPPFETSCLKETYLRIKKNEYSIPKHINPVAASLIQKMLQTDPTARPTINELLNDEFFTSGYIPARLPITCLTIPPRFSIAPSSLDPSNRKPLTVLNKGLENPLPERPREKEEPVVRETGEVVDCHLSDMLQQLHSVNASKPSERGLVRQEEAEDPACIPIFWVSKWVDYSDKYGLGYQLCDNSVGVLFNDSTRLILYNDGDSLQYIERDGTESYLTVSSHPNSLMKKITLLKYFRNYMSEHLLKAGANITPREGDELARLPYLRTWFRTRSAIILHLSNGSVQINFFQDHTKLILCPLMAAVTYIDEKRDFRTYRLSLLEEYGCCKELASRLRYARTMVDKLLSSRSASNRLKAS

[13] = molecular target: Tyrosine-protein kinase Yes (Homo sapiens) (UniProt P07947); test: Inhibition of recombinant full-length human Yes assessed as residual activity at 10 uM using poly(Glu, Tyr) 4:1 as substrate incubated for 40 mins in presence of [gamma33P]ATP by scintillation counting based radiometry assay relative to control
Tyrosine-protein kinase Yes (Homo sapiens), sequence (P07947 2-543 limits assumed): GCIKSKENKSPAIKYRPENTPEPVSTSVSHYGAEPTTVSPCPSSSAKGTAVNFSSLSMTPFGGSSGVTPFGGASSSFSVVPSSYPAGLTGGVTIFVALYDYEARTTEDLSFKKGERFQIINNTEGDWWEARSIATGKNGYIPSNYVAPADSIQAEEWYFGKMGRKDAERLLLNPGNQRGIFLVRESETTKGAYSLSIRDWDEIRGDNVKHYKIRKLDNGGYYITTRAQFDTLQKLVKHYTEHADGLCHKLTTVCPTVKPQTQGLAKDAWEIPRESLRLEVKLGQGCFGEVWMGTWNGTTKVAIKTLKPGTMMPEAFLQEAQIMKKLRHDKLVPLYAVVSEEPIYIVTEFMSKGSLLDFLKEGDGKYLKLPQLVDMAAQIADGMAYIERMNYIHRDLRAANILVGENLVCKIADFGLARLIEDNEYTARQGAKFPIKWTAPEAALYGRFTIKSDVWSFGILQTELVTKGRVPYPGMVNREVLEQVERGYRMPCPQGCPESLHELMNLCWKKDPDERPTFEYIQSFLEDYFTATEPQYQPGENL

[14] = molecular target: Serine/threonine-protein kinase WNK3 (Homo sapiens) (UniProt Q9BYP7); test: Inhibition of recombinant human WNK3 (1 to 434 residues) assessed as residual activity at 10 uM using myelin basic protein as substrate incubated for 40 mins in presence of [gamma33P]ATP by scintillation counting based radiometry assay relative to control
[15] = species: Homo sapiens; test: Inhibition of human MAPK2 assessed as residual activity at 10 uM relative to control
[16] = system: Serine/threonine-protein kinase Sgk2 (Homo sapiens), Q9HBY8 [S416D]; test: Inhibition of recombinant human SGK2 S416D mutant (54 to end residues) assessed as residual activity at 10 uM using GRPRTSSFAEGKK as substrate incubated for 40 mins in presence of [gamma33P]ATP by scintillation counting based radiometry assay relative to control
Serine/threonine-protein kinase Sgk2 (Homo sapiens), Q9HBY8 [S416D], sequence (Q9HBY8 1-367 with tags or gaps S416D): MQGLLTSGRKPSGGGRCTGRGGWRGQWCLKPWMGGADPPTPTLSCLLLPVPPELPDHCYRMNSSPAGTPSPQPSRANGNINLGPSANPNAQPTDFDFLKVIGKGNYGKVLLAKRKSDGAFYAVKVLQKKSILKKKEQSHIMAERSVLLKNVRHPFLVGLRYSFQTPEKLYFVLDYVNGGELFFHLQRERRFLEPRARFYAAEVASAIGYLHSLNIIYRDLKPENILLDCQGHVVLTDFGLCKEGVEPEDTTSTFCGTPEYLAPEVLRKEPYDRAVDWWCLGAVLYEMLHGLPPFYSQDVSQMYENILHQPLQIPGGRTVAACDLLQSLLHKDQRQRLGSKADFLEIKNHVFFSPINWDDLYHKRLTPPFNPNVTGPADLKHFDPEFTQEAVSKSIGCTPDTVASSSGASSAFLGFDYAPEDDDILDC

[17] = molecular target: Protein-tyrosine kinase 6 (Homo sapiens) (UniProt Q13882); test: Inhibition of recombinant full length human BRK assessed as residual activity at 10 uM using poly(Glu, Tyr) 4:1 as substrate incubated for 40 mins in presence of [gamma-33ATP] by scintillation counting based radiometry assay relative to control
[18] = system: Serine/threonine-protein kinase Nek4 (Homo sapiens), P51957 [P225A]; test: Inhibition of recombinant full-length human NEK4 P225A mutant assessed as residual activity at 10 uM using myelin basic protein as substrate measured after 40 mins in presence of [gamma33P]ATP by scintillation counting based radiometry assay relative to control
[19] = molecular target: Epidermal growth factor receptor (Homo sapiens) (UniProt P00533); test: Inhibition of recombinant human EGFR (696 to end residues) assessed as residual activity at 10 uM using poly(Glu, Tyr) 4:1 as substrate at 40 mins in presence of [gamma-33ATP] by scintillation counting based radiometry assay relative to control
[20] = species: Mus musculus; test: Inhibition of recombinant full length mouse PI3K p110/p65 assessed as residual activity at 10 uM using phosphatidylinositol-4, 5-bisphosphate as substrate incubated for 40 mins in presence of [gamma33P]ATP by scintillation counting based radiometry assay relative to control
[21] = molecular target: Cyclin-dependent kinase 2/cyclin E1 (Homo sapiens) (UniProt P24864+P24941); test: Inhibition of recombinant full length human CDK2/CyclinE assessed as residual activity at 10 uM using Histone H1 as substrate incubated for 40 mins in presence of [gamma-33ATP] by scintillation counting based radiometry assay relative to control; type: protein-complex assay

## C[C@@H](c1ccccc1)n1nnc2cnc3ccc(-c4cnc5[nH]ccc5c4)cc3c21
[1]
  Activity: 72%
[2]
  Activity: 73%
[3]
  Activity: 16%
[4]
  Activity: 59%
[5]
  Activity: 47%
[6]
  Activity: 81%
[7]
  Activity: 90%
[8]
  Activity: 27%
[9]
  Activity: 3%
[10]
  Activity: 1%
[11]
  Activity: 3%
[12]
  Activity: 105%
[13]
  Activity: 3%
[14]
  Activity: 99%
[15]
  Activity: 93%
[16]
  Activity: 36%
[17]
  Activity: 21%
[18]
  Activity: 20%
[19]
  Activity: 90%
[20]
  Activity: 14%
[21]
  Activity: 72%
